Earlier results on 1 substance are cited in paper PMC3983144 (Bioconjugate chemistry, 2014).

Square brackets hold non-standard residues; d marks the D form. Nle = CCCC[C@H](N)C(=O)O

In this data set the test system is MC1R. Conditions: B16F1 melanoma cells.

For orientation: IC50 means the concentration that gives 50% inhibition. As for Ac-[Nle]DH[dF]RWGK-NH2 [NAPamide], the IC50 was 270 pM.
